We go through seven compounds from PubChem BioAssay AID1259407 (Chemical Carcinogenesis Research Information System (CCRIS), 2018).

In this data set the test system is CCRIS mutagenicity, Ames/micronucleus/aberration tests. Kind of data set: CCRIS mutagenicity studies.
[1] abbreviates: Test System: AMES SALMONELLA TYPHIMURIUM, Strain/Indicator: TA98, Metabolic Activation: RAT, LIVER, S-9, AROCLOR 1254, Method: STANDARD PLATE.
The mark [2] stands for this setting: Test System: AMES SALMONELLA TYPHIMURIUM, Strain/Indicator: TA1537, Metabolic Activation: NONE, Method: STANDARD PLATE.
The mark [3] stands for this setting: Test System: AMES SALMONELLA TYPHIMURIUM, Strain/Indicator: TA98, Metabolic Activation: NONE, Method: STANDARD PLATE.
Setting [4] is: Test System: AMES SALMONELLA TYPHIMURIUM, Strain/Indicator: TA100, Metabolic Activation: NONE, Method: STANDARD PLATE.
Setting [5] is: Test System: AMES SALMONELLA TYPHIMURIUM, Strain/Indicator: TA100, Metabolic Activation: RAT, LIVER, S-9, AROCLOR 1254, Method: STANDARD PLATE.
Setting [6] is: Test System: AMES SALMONELLA TYPHIMURIUM, Strain/Indicator: TA1535, Metabolic Activation: NONE, Method: STANDARD PLATE.
[7] abbreviates: Test System: AMES SALMONELLA TYPHIMURIUM, Strain/Indicator: TA1538, Metabolic Activation: NONE, Method: STANDARD PLATE.
Where [8] appears, read: Test System: AMES SALMONELLA TYPHIMURIUM, Strain/Indicator: TA1538, Metabolic Activation: RAT, LIVER, S-9, AROCLOR 1254, Method: STANDARD PLATE.

Each structure is given as a SMILES string. The source made the active and inactive calls. How the calls were made is not given here.

As to `O=[N+]([O-])c1cccc2cccc([N+](=O)[O-])c12`, the mutagenic call (End Point: IN VITRO CHROMOSOMAL ABERRATIONS, Test System: CHL CELLS, Metabolic Activation: NONE) was “inactive; negative”; the mutagenic call (End Point: IN VITRO CHROMOSOMAL ABERRATIONS, Test System: CHL CELLS, Metabolic Activation: RAT, LIVER, S-9, SODIUM PHENOBARBITAL AND 5,6-BENZOFLAVONE) is “active; positive (structural changes)”; the mutagenic call (Test System: AMES SALMONELLA TYPHIMURIUM, Strain/Indicator: TA98, Metabolic Activation: HAMSTER, LIVER, S-9, AROCLOR 1254, FLAVIN MONONUCLEOTIDE, Method: PREINCUBATION) is “active; positive”; the mutagenic call (Test System: AMES SALMONELLA TYPHIMURIUM, Strain/Indicator: TA98, Metabolic Activation: HAMSTER, LIVER, S-9, AROCLOR 1254, Method: PREINCUBATION) is “active; positive”; the mutagenic call (Test System: AMES SALMONELLA TYPHIMURIUM, Strain/Indicator: TA98, Metabolic Activation: NONE, Method: PREINCUBATION) was “active; positive”; the mutagenic call (Test System: AMES SALMONELLA TYPHIMURIUM, Strain/Indicator: TA98, Metabolic Activation: RAT LIVER S-9, PHENOBARBITAL AND BETA-NAPHTHOFLAVONE, Method: PREINCUBATION) was “active; positive”. The mutagenic call runs as follows: (Test System: AMES SALMONELLA TYPHIMURIUM, Strain/Indicator: TA98, Metabolic Activation: RAT, LIVER, S-9, AROCLOR 1254, FLAVIN MONONUCLEOTIDE, Method: PREINCUBATION) “active; positive”; under setting [1], “active; positive”; (Test System: AMES SALMONELLA TYPHIMURIUM, Strain/Indicator: TA100, Metabolic Activation: NONE, Method: PREINCUBATION) “active; positive”; (Test System: AMES SALMONELLA TYPHIMURIUM, Strain/Indicator: TA100, Metabolic Activation: RAT LIVER S-9, PHENOBARBITAL AND BETA-NAPHTHOFLAVONE, Method: PREINCUBATION) “active; positive”; (Test System: AMES SALMONELLA TYPHIMURIUM, Strain/Indicator: TA1535, Metabolic Activation: NONE, Method: PREINCUBATION) “inactive; negative”; (Test System: AMES SALMONELLA TYPHIMURIUM, Strain/Indicator: TA1535, Metabolic Activation: RAT LIVER S-9, PHENOBARBITAL AND BETA-NAPHTHOFLAVONE, Method: PREINCUBATION) “inactive; negative”. Also, the mutagenic call (Test System: AMES SALMONELLA TYPHIMURIUM, Strain/Indicator: TA1537, Metabolic Activation: NONE, Method: PREINCUBATION) is “active; positive”; the mutagenic call (Test System: AMES SALMONELLA TYPHIMURIUM, Strain/Indicator: TA1537, Metabolic Activation: RAT LIVER S-9, PHENOBARBITAL AND BETA-NAPHTHOFLAVONE, Method: PREINCUBATION) is “active; positive”; the mutagenic call (Test System: AMES SALMONELLA TYPHIMURIUM, Strain/Indicator: TA1538, Metabolic Activation: NONE, Method: PREINCUBATION) was “active; positive”; the mutagenic call (Test System: AMES SALMONELLA TYPHIMURIUM, Strain/Indicator: TA1538, Metabolic Activation: RAT LIVER S-9, PHENOBARBITAL AND BETA-NAPHTHOFLAVONE, Method: PREINCUBATION) was “active; positive”; the mutagenic call (Test System: E.COLI, Strain/Indicator: WP2UVRA, Metabolic Activation: NONE, Method: PREINCUBATION) was “inactive; negative”; the mutagenic call (Test System: E.COLI, Strain/Indicator: WP2UVRA, Metabolic Activation: RAT LIVER S-9, PHENOBARBITAL AND BETA-NAPHTHOFLAVONE, Method: PREINCUBATION) was “active; positive”.

For the compound `CNc1ccc(Nc2c3ccccc3nc3ccccc23)cc1`, the mutagenic call under setting [2] was “active; positive”.

Take `O=c1cc(-c2ccc(O)cc2)oc2cc(O)cc(O)c12`: the mutagenic call is, setting by setting: (Test System: AMES SALMONELLA TYPHIMURIUM, Strain/Indicator: TA97, Metabolic Activation: NONE, Method: STANDARD PLATE) “inactive; negative”; (Test System: AMES SALMONELLA TYPHIMURIUM, Strain/Indicator: TA97, Metabolic Activation: RAT, LIVER, S-9, AROCLOR 1254, Method: STANDARD PLATE) “inactive; negative”; under setting [3], “inactive; negative”; under setting [1], “inactive; negative”; under setting [4], “inactive; negative”; under setting [5], “inactive; negative”. Further, the mutagenic call is “inactive; negative” (Test System: AMES SALMONELLA TYPHIMURIUM, Strain/Indicator: TA102, Metabolic Activation: NONE, Method: STANDARD PLATE); “inactive; negative” (Test System: AMES SALMONELLA TYPHIMURIUM, Strain/Indicator: TA102, Metabolic Activation: RAT, LIVER, S-9, AROCLOR 1254, Method: STANDARD PLATE); “inactive; negative” under setting [6]; “inactive; negative” (Test System: AMES SALMONELLA TYPHIMURIUM, Strain/Indicator: TA1535, Metabolic Activation: RAT, LIVER, S-9, AROCLOR 1254, Method: STANDARD PLATE); “inactive; negative” under setting [7]; “inactive; negative” under setting [8]. In addition, the mutagenic call runs as follows: (Test System: Mouse lymphoma, Strain/Indicator: L5178Y (tk+/tk-), Metabolic Activation: None, Method: Suspension/plate) “active; positive”; (Test System: Mouse lymphoma, Strain/Indicator: L5178Y (tk+/tk-), Metabolic Activation: Rat, Liver, S-9, Aroclor 1254, Method: Suspension/plate) “active; positive”.

Consider `CC(=O)ON(OCc1ccc(C)cc1)C(=O)c1ccccc1`, for which the mutagenic call under setting [4] was “active; positive” and the mutagenic call (Test System: AMES SALMONELLA TYPHIMURIUM, Strain/Indicator: TA100, Metabolic Activation: RAT, S-9, AROCLOR, Method: STANDARD PLATE) is “active; positive”.

As to `O=Cc1ccccc1O`, the mutagenic call reads like this: under setting [3], “inactive; negative”; (Test System: AMES SALMONELLA TYPHIMURIUM, Strain/Indicator: TA98, Metabolic Activation: S-9, Method: STANDARD PLATE) “inactive; negative”; under setting [4], “inactive; negative”; (Test System: AMES SALMONELLA TYPHIMURIUM, Strain/Indicator: TA100, Metabolic Activation: S-9, Method: STANDARD PLATE) “inactive; negative”.

For the compound `O=C(O)[C@@H]1Cc2c([nH]c3ccccc23)[C@@H]([C@H]2CCNC2=S)N1`, the mutagenic call is “inactive; negative” (Test System: AMES SALMONELLA TYPHIMURIUM, Strain/Indicator: TA98, Metabolic Activation: NONE); “active; positive” (Test System: AMES SALMONELLA TYPHIMURIUM, Strain/Indicator: TA98, Metabolic Activation: S-9); “inactive; negative” (Test System: AMES SALMONELLA TYPHIMURIUM, Strain/Indicator: TA100, Metabolic Activation: NONE); “inactive; negative” (Test System: AMES SALMONELLA TYPHIMURIUM, Strain/Indicator: TA100, Metabolic Activation: S-9).

In the case of `CNC(=O)Oc1ccccc1OC(C)C`, the mutagenic call is “inactive; negative” (Test System: AMES SALMONELLA TYPHIMURIUM, Strain/Indicator: TA98, Metabolic Activation: HAMSTER, LIVER, S-9, AROCLOR 1254, Method: STANDARD PLATE); “inactive; negative” under setting [3]; “inactive; negative” under setting [1]; “inactive; negative” (Test System: AMES SALMONELLA TYPHIMURIUM, Strain/Indicator: TA100, Metabolic Activation: HAMSTER, LIVER, S-9, AROCLOR 1254, Method: STANDARD PLATE); “inactive; negative” under setting [4]; “inactive; negative” under setting [5]. For the same compound, the mutagenic call reads like this: under setting [6], “active; positive”; under setting [2], “inactive; negative”; (Test System: AMES SALMONELLA TYPHIMURIUM, Strain/Indicator: TA1537, Metabolic Activation: RAT, LIVER, S-9, AROCLOR 1254, Method: STANDARD PLATE) “inactive; negative”; (Test System: AMES SALMONELLA TYPHIMURIUM, Strain/Indicator: TA1538, Metabolic Activation: HAMSTER, LIVER, S-9, AROCLOR 1254, Method: STANDARD PLATE) “inactive; negative”; under setting [7], “inactive; negative”; under setting [8], “inactive; negative”. In addition, the mutagenic call is, setting by setting: (Test System: CHINESE HAMSTER V-79, Strain/Indicator: V-79(HPRT)/6-THIOGUANINE, Metabolic Activation: NONE) “inactive; negative”; (Test System: MOUSE LYMPHOMA, Strain/Indicator: L5178Y (TK+/TK-), Metabolic Activation: NONE, Method: SUSPENSION/PLATE) “active; positive. reevaluation of results: positive”; (Test System: MOUSE LYMPHOMA, Strain/Indicator: L5178Y (TK+/TK-), Metabolic Activation: RAT, LIVER, S-9, AROCLOR 1254, Method: SUSPENSION/PLATE) “active; positive. reevaluation of results: positive”.
